Source: patent US20120053235A1, “Dihydromyricetin as an IKK-beta inhibitor used for treatment of arthritis, cancer and autoimmune conditions, and other diseases or disorders” (HONG KONG BAPTIST UNIVERSITY, priority 2010, published 2012)

Columns and labels:
[1] = test system: IL-2 production in human T-cell; test: IL-2 ELISA of culture supernatants of stimulated T cells; type: cell-based; design: dose or concentration left out as unconfirmed; details: DMY; P/I or anti-OKT-3/anti-CD28 for 48 hours; FIGS. 3A and 3B
Method: The cells (1×10^5/well) were incubated in the presence or absence of DMY for 2 hours at the indicated concentrations, and then the cells were stimulated with P/I or anti-OKT-3/anti-CD28 for 48 hours. The cell-free culture supernatants were collected, and then the concentration of IL-2 in the supernatants was determined by ELISA method.

[2] = test system: ICR mice; details: mouse, in vivo
Method: ICR (Imprinting Control Region) mice (both male and female) were purchased from the Laboratory Animal Services Center, the Chinese University of Hong Kong, Hong Kong. At the beginning of the study, one mouse was given orally with DMY at a dose of 2,000 mg/kg of mouse after fasting for 12 hours. The mouse had free access to water and after 2 hours, it was supplied with chow diet. Signs of toxicosis, onset of signs, and time to death of the mouse were monitored and recorded. Results of the initial exposure were used to select the subsequent dose of DMY, using the up-and-down method to estimate the lethal dose. […] If all the mice stayed alive, a higher dose of DMY was given to another three mice. All the mice were monitored continuously for two hours, every half hour for the next 5 hours, and at least every 10 hours until the 72nd hour of the study. Mice that died were immediately undergone autopsy. Mice remaining alive for 14 days upon study were sacrificed with an overdose pentobarbital.

[3] = test system: collagen II induced arthritis in female Wistar rats; test: Collagen II induced arthritis (CIA); type: in vivo
Method: Collagen II solution (collagen, 2 mg/ml in 0.05M acetic acid, Chondrex 20022, Redmond, Wash., USA) was emulsified with an equal volume of incomplete Freund's adjuvant (IFA, Chondrex 7002, Redmond, Wash., USA) at 4° C. using a high-speed homogenizer. In the experiment of CIA, DMY was encapsulated with HP-CD (1:8.48) and then dissolved in the normal saline with drug concentrations of 50 and 100 mg/kg body weight. Rats were intradermally injected at the base of the tail with 100 μl collagen/incomplete Freund's adjuvant (IFA) emulsion containing […] of collagen II by the use of a glass syringe equipped with a locking hub and a 27-G needle. On day 7 after the primary immunization, all the rats were given a booster injection of 100 μg of collagen II in IFA. On the day after the onset of arthritis (day 13), the CIA rats were exposed to a daily intraperitoneal administration of DMY (50 and 100 mg/kg) until day 30 of the study. DEX (0.1 mg/kg, one per day), MTX (3.75 mg/kg, twice per week), and indomethacin (1 mg/kg, one per day) were used as positive reference drugs. The rats were inspected daily from the onset of arthritis characterized by edema and/or erythema in the paws. The incidence and severity of arthritis were evaluated using an arthritic scoring system, and bi-hind paw volumes and body weight were measured every 2 days started on the day when the arthritic signs were firstly visible (day 13). In the arthritic scoring system, lesions (i.e., the clinical arthritic signs) of the four paws of each rat were graded from 0 to 4 according to the extent of both edema and erythema of the periarticular tissues. As such, 16 was the potential maximum of the combined arthritic scores per animal. The hind paw volumes were measured using a plethysmometer chamber (7140 UGO. Basile, Comerio, Italy) and expressed as the mean volume change of both hind paws of the rats. Body weight of the rats was monitored with a 0.1 g precision balance (Sartorius AG, Goettingen, Germany). On day 30, all rats were sacrificed with liver, spleen and thymus being collected and weighted. The organ index for a specific organ is equal to the ratio of the weight of that organ to a body weight of 100 g.

[4] = test system: NF-κB-Luciferase reporter in Jurkat T cells; test: NF-κB reporter assay (luciferase); type: cell-based; details: 20 ng/ml PMA plus 1 μM ionomycin, 6 hours; FIG. 6B
Method: The Jurkat T cells are transiently transfected with NF-κB-Luciferase reporter plasmid with lipofectamine LTX (Invitrogen). The transfected cells were treated with 20 ng/ml PMA plus 1 μM ionomycin in the presence or absence of biotin-DMY for 6 hours. The cells were then lysed in Passive Lysis Buffer (Promega) and the transcriptional activity was determined by measuring the activity of firefly luciferase in a microplate luminometer (Perkin Elmer) using Luciferase Reporter Assay (Promega).

[5] = CIA rats, daily intraperitoneal 50 and 100 mg/kg, day 13 to day 30, vs vehicle-treated, FIGS. 10A and B

O=C1c2c(O)cc(O)cc2O[C@H](c2cc(O)c(O)c(O)c2)[C@H]1O [DMY, dihydromyricetin]
production of IL-2 [1]: suppress the production of IL-2 | acute oral LD50 [2]: greater than 5,000 mg/kg body weight | ameliorative effect compared with MTX ([3]; CIA rats, DMY 100 mg/kg, MTX 3.75 mg/kg twice per week): better than that of MTX | arthritic scores [3, 5]: significantly reduced | hind paw volume [3, 5]: significantly reduced | organ indexes of spleen and/or thymus ([3]; rat, in vivo): no adverse effect | NF-κB transcriptional activity [4]: significantly suppressed
